Common to all, as to test: NCI tumour cell line growth inhibition, 48 h
For test [1], the system named is 786-0.
For test [2], the system named is BT-549.
For test [3], the system named is HCT-116.
Test [4] deals with HCT-15.
Test [5] has as its system HOP-92.
The test system of test [6] is IGROV-1.
Test [7] has as its system MDA-MB-435.
In test [8] the test system is MDA-N.
For test [9], the system named is NCI-H23.
The subject of test [10] is NCI-H460.
In test [11] the test system is OVCAR-4.
For test [12], the system named is RPMI-8226.
Test [13] relates to SF-268.
The subject of test [14] is SK-OV-3.
Test [15] has as its system SR.
Test [16] has as its system T47D.
Test [17] relates to TK-10.
Test [18] concerns U-251.
In test [19] the test system is UO-31.

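In this assay, cells in 96-well plates receive the compound at five concentrations for 48 hours. Endpoints are linearly interpolated between the surrounding concentrations. GI50: concentration for 50% inhibition of growth.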 The source made the active and inactive calls. Rule as the data show it: active = GI50 up to about 1.1 µM and inactive = higher.

In the case of `O=S1(=O)C(c2ccccc2)C(N2CCCCC2)C1C1CC2c3ccccc3C1c1ccccc12` (centres undefined), the GI50 in [1] was > 100 µM (inactive); in test [2], > 100 µM (inactive); in test [3], 5.69 µM (inactive); in test [4], above 48.5 µM; in [5], 8.81 µM (inactive); in test [6] it was > 94 µM (inactive). The GI50 was > 30.7 µM (inactive) in test [7]; > 100 µM (inactive) in [8]; > 100 µM (inactive) in [9]; 17.6 µM (inactive) in test [10]; 7.98 µM (inactive) in test [11]; 4.5 µM (inactive) in [12]. Further, the GI50 in test [13] is > 100 µM (inactive); in test [14] it was > 100 µM (inactive); in test [15], 5.93 µM (inactive); in test [16], 10.4 µM (inactive); in test [17], > 100 µM (inactive); in test [18], > 85.1 µM (inactive). Also, in test [19], the GI50 is > 54.7 µM (inactive).
In the case of `O=S(=O)(N/C(=N\O)Nc1ccc(Cl)cc1)c1ccccc1`, the GI50 in [1] was 1.87 µM (inactive); in [2], 12.6 µM (inactive); in test [3], 10.7 µM (inactive); in [4], 7.66 µM; in test [5] it was 2.94 µM (inactive); in test [6] it was 10.5 µM (inactive). Further, the GI50 was 9.23 µM (inactive) in test [7]; 3.9 µM (inactive) in test [8]; 16.2 µM (inactive) in test [9]; 13.4 µM (inactive) in test [10]; 2.33 µM (inactive) in test [11]; 4.13 µM (inactive) in test [12]. The GI50 in [13] was 10.8 µM (inactive); in [14] it was 27.9 µM (inactive); in test [15], 1.15 µM (inactive); in test [16], 2.74 µM (inactive); in [17], 14 µM (inactive); in test [18], 19.5 µM (inactive). Moreover, in test [19], the GI50 was 3.23 µM (inactive).
Take `OCC1OC(OCC(O)C(O)C(O)C(/C=N/Nc2ccccc2)=N/Nc2ccccc2)C(O)C(O)C1O` (centres undefined): the GI50 is > 100 µM (inactive) in test [1]; > 100 µM (inactive) in test [2]; > 100 µM (inactive) in [3]; above 100 µM in test [4]; 34.8 µM (inactive) in test [5]; 5.19 µM (inactive) in test [6]. The GI50 in test [7] is > 100 µM (inactive); in test [8], > 100 µM (inactive); in [9], > 100 µM (inactive); in test [10], 30.9 µM (inactive); in [12] it was > 100 µM (inactive); in [13], 26 µM (inactive). The GI50 in [14] is > 100 µM (inactive); in [15], > 100 µM (inactive); in [16], 17 µM (inactive); in [17], > 100 µM (inactive); in test [18], > 100 µM (inactive); in [19], 30.4 µM (inactive).
With `COc1ccc(-c2c(-c3ccccc3)c(C)nc3nc(SC)nc(SC)c23)cc1OC`, the GI50 is 24.8 µM (inactive) in [2]; 6.18 µM (inactive) in [3]; 8.2 µM in test [4]; 4.39 µM (inactive) in [5]; 30 µM (inactive) in test [6]; 8.17 µM (inactive) in test [7]. The GI50 in [8] is 8.99 µM (inactive); in [9], 28.8 µM (inactive); in test [10] it was 2.12 µM (inactive); in [12], 2.82 µM (inactive); in test [13], 24 µM (inactive); in [14] it was 3.72 µM (inactive). Further, the GI50 in test [15] is 0.565 µM (active); in test [16] it was 13 µM (inactive); in test [17] it was 23.6 µM (inactive); in test [18] it was 9.1 µM (inactive); in test [19] it was 3.79 µM (inactive).
As for `CN1C(=O)C2C=C3CCCCC3=CC2N(C)C1=O` (centres undefined), the GI50 was > 100 µM (inactive) in test [2]; > 100 µM (inactive) in test [3]; above 100 µM in test [4]; 99.1 µM (inactive) in [5]; > 100 µM (inactive) in test [6]; > 100 µM (inactive) in test [7]. In addition, the GI50 in test [8], in [9], in test [10], in [11], in test [12] and in test [13] was > 100 µM (inactive) each time. Moreover, the GI50 in test [14], in test [15], in test [16], in test [17], in test [18] and in test [19] was > 100 µM (inactive) throughout.
For `COc1ccc2cc(CNCCCCCCCCCCCCNCc3ccc4cc(OC)ccc4c3)ccc2c1`, the GI50 in test [1] was 16.5 µM (inactive); in test [2], 18.9 µM (inactive); in test [3], 16.7 µM (inactive); in test [4], 17.6 µM; in test [5], 21.7 µM (inactive); in test [6], 15.8 µM (inactive). The GI50 in [7] was 25.6 µM (inactive); in test [8], 21.4 µM (inactive); in [9], 20 µM (inactive); in test [10] it was 17.3 µM (inactive); in [11], 16.4 µM (inactive); in test [12], 12.8 µM (inactive). Also, the GI50 in [13] was 8.04 µM (inactive); in test [14], 18.7 µM (inactive); in test [15], 1.79 µM (inactive); in test [16], 15.8 µM (inactive); in test [17], 18.8 µM (inactive); in test [18], 20.8 µM (inactive). For the same compound, in [19], the GI50 was 20.9 µM (inactive).
Turning to `CC1(C)CCC[C@]2(C)[C@@H](C=O)C(C=O)=CC[C@@H]12` [POLYGODIAL], the GI50 in test [1] was 37 µM (inactive); in test [2] it was 25.9 µM (inactive); in test [3], 28.6 µM (inactive); in test [4], 17 µM; in test [5], 20.6 µM (inactive); in test [6] it was 19 µM (inactive). Further, the GI50 was 36.6 µM (inactive) in [7]; 13.6 µM (inactive) in [8]; 28 µM (inactive) in test [9]; 15.8 µM (inactive) in test [11]; 10.7 µM (inactive) in test [12]; 15.3 µM (inactive) in test [13]. Also, the GI50 in [14] was 30.8 µM (inactive); in test [15], 18.2 µM (inactive); in [16], 19.8 µM (inactive); in test [17] it was 25.9 µM (inactive); in test [18] it was 19 µM (inactive); in [19] it was 16.4 µM (inactive).
On to `COc1cc2c3c(c4ccc(O)cc4c2cc1OC)[C@@H](O)[C@@H]1CCCN1C3`, for which the GI50 in [1] is < 0.001 µM (active); in test [2] it was 0.00168 µM (active); in test [3], < 0.001 µM (active); in test [4] it was below 0.001 µM; in test [5] it was 0.0011 µM (active); in test [6], < 0.001 µM (active). Moreover, the GI50 was < 0.001 µM (active) in [7]; < 0.001 µM (active) in test [8]; 0.0012 µM (active) in test [9]; < 0.001 µM (active) in test [10]; < 0.001 µM (active) in test [11]; < 0.001 µM (active) in test [12]. In addition, the GI50 in test [13] was < 0.001 µM (active); in test [14], 0.00105 µM (active); in test [15], < 0.001 µM (active); in [16] it was < 0.001 µM (active); in test [17] it was 0.00106 µM (active); in test [18], < 0.001 µM (active). Moreover, the GI50 in [19] is < 0.001 µM (active).
For `CCOP(=O)(OCC)C(Cc1ccc(OC)c(OC)c1)N=C(c1ccccc1)c1ccccc1` (centres undefined), the GI50 in test [2] was > 100 µM (inactive); in [3], 27.1 µM (inactive); in test [4], 32.5 µM; in test [5], 37.9 µM (inactive); in test [6] it was 45.2 µM (inactive); in [7], 71 µM (inactive). The GI50 in test [8] was 59.8 µM (inactive); in [9] it was 41.6 µM (inactive); in test [10], 34 µM (inactive); in test [11], 81.7 µM (inactive); in test [12], 18.8 µM (inactive); in test [13], > 100 µM (inactive). For the same compound, the GI50 in [15] was 6.84 µM (inactive); in [16], 20.5 µM (inactive); in [17], 40.8 µM (inactive); in test [18] it was 46.1 µM (inactive); in [19], 40.4 µM (inactive).
With `Nc1nc(Cl)cc(NCC2(CO)CC(CCc3ccccc3)C2)n1` (centres undefined), the GI50 in [1] is > 71.8 µM (inactive); in test [2], > 32.8 µM (inactive); in [4], above 59.2 µM; in [5], > 28.8 µM (inactive); in test [6], > 100 µM (inactive); in test [7], > 100 µM (inactive). The GI50 is > 100 µM (inactive) in test [8]; 10.5 µM (inactive) in [9]; 22.3 µM (inactive) in test [10]; > 29.3 µM (inactive) in [11]; 2.9 µM (inactive) in test [12]; > 55.8 µM (inactive) in [13]. The GI50 in test [14] was > 100 µM (inactive); in [15] it was 1.31 µM (inactive); in [16], 0.542 µM (active); in test [17], > 70.5 µM (inactive); in [18] it was > 100 µM (inactive); in test [19] it was > 75.2 µM (inactive).
Turning to `Nc1nccc2c1ncn2[C@H]1C[C@H](O)[C@@H](CO)O1`, the GI50 in test [2] is > 100 µM (inactive); in test [3], > 100 µM (inactive); in test [4] it was above 100 µM; in [5], > 100 µM (inactive); in test [6], > 100 µM (inactive); in test [7], > 100 µM (inactive). In addition, the GI50 in test [8], in [9], in test [10], in [11], in test [12] and in test [14] was > 100 µM (inactive) throughout. The GI50 in test [15], in test [16], in test [17], in test [18] and in test [19] was > 100 µM (inactive) in each case.

Source of the values: ChEMBL document CHEMBL1201862, “PubChem BioAssay data set” (2004).
